Experimental data from PMC9108603, “Microbial Metabolite Inspired β‐Peptide Polymers Displaying Potent and Selective Antifungal Activity” (Advanced Science, 2022).
In brackets after ≈: the same amount, converted by molar mass.

Legend:
NIH 3T3 fibroblast cells = assay: Cytotoxicity, MTT assay; type: cell-based; details: Mus musculus, NIH3T3, 24 h, 37 °C, 800 to 1.6 μg/mL, 50% cell viability
Procedure: (§1) Cytotoxicity assay. Cytotoxicity tests were performed on NIH 3T3 fibroblast cells, endothelial cells (HUVEC), macrophage (RAW264.7), liver cells (LO2), kidney cells (COS7) and enterocyte (NCM-460) using MTT assay. Cells were cultured in DMEM supplemented with 10% FBS, 5% penicillin, 2 mM L-glutamine and incubated at 37 °C in 5% CO 2. Cells were harvested and seeded onto 96-well plates at a density of 1.0 × 10^4 cells per well and incubated for 24 h. On each plate, wells containing growth medium only and cells in growth medium without any antifungal agent were used as the negative and positive control, […]
(§2) concentrations ranging from 800 to 1.6 μg/mL. Medium in each cell-containing well was replaced with 100 μL of the corresponding polymer solution, and the plates were incubated at 37 °C for 24 h. Then, the solution in each well was switched to 100 µL MTT solution (1 mg/mL) and the plate was incubated in the dark at 37 °C for 4 h. After centrifuge (to prevent the possible loss of formazan crystals) and removal of the supernatant, 100 μL DMSO was added to each well to dissolve the formed formazan under stirred for 20 min. Then 85 µL of the supernatant from each well was transferred to the corresponding well in a new plate, followed by absorbance measurement at 570 nm on a plate reader. Each antifungal agent was tested in triplicate in each assay, and the experiment was conducted at least twice on a different day. The percentage of cell viability in each test well, relative to the positive control (which defines 100%) w as calculated from [% fibroblast growth = (A polymer – Ablank)/(Acontrol – A blank) × 100]. The IC 50 value is the minimum concentration to inhibit 50% of fibroblast cell growth. All measurements were performed with three replicates.

kidney cells (COS7) = assay: Cytotoxicity, MTT assay; type: cell-based; details: Chlorocebus aethiops, COS-7, 24 h, 37 °C, 800 to 1.6 μg/mL, 50% cell viability
Procedure: as §1, §2

enterocyte (NCM-460) = assay: Cytotoxicity, MTT assay; type: cell-based; details: Homo sapiens, NCM460, 24 h, 37 °C, 800 to 1.6 μg/mL, 50% cell viability
Procedure: as §1, §2

liver cells (LO2) = assay: Cytotoxicity, MTT assay; type: cell-based; details: 24 h, 37 °C, 800 to 1.6 μg/mL, 50% cell viability
Procedure: as §1, §2

macrophage (RAW264.7) = assay: Cytotoxicity, MTT assay; type: cell-based; details: Mus musculus, 24 h, 37 °C, 800 to 1.6 μg/mL, 50% cell viability
Procedure: as §1, §2

various mammalian cells = assay: Cytotoxicity, MTT assay, summary over cell types; type: cell-based; details: HUVEC, RAW264.7, LO2, COS7, NCM‐460, 24 h, read-out: IC50 for cells other than fibroblast (range)
Procedure: as §1
concentrations ranging from 800 to 1.6 μg/mL. Medium in each cell-containing well was replaced with 100 μL of the corresponding polymer solution, and the plates were incubated at 37 °C for 24 h. Then, the solution in each well was switched to 100 µL MTT solution (1 mg/mL) and the plate was incubated in the dark at 37 °C for 4 h. […] Then 85 µL of the supernatant from each well was transferred to the corresponding well in a new plate, followed by absorbance measurement at 570 nm on a plate reader. […] The percentage of cell viability in each test well, relative to the positive control (which defines 100%) w as calculated from [% fibroblast growth = (A polymer – Ablank)/(Acontrol – A blank) × 100]. […]

[1] = system: Gram‐positive and Gram‐negative bacteria; assay: Antibacterial MIC test, summary over six bacteria; type: cell-based; details: S. aureus, S. epidermidis, B. subtilis, E. coli, A. baumannii, K. pneumoniae
Text: aforementioned antifungal assay. Gram-positive bacteria ( S. aureus ATCC 6538, S.

[2] = system: mature C. albicans biofilms; assay: Eradication of mature biofilm (MTT); type: cell-based, Candida albicans; details: 48 h biofilm, then 48 h treatment at 37 °C
[3] = system: C. albicans biofilm formation; assay: Inhibition of biofilm formation (MTT); type: cell-based, Candida albicans; details: RPMI, 37 °C, 48 h, inhibits 80% of biofilm formation
Procedure: fresh non-treated cell suspension was used as a control. The bright field and FITC fluorescence were collected under 100× oil immersion lenses, with representative areas in the images electronically amplified sixfold.
Anti-biofilms. This study was conducted in 96-well plates (flat bottom and tissue-culture treated) by following the reported protocol with slight modifications. On each plate, wells containing RPMI only and cells in medium without any antifungal agent were used as the negative and positive control, respectively.
For biofilm formation: Freshly cultured fungal cells were collected to prepare the working suspension at 1.0 × 10^6 CFU/mL in RPMI. A two-fold serial dilution for each antifungal agent was prepared using a corresponding medium in a 96-well plate to give 100 µL of polymer solution in each well. 100 µL of the working suspension was added to each […]
followed by addition of 100 µL MTT solution (1 mg/mL). The MTT assay protocol was the same as the above mentioned protocol in fibroblast cell toxicity assay. This value was calculated from [% biofilm growth = (A polymer – Ablank)/(Acontrol – Ablank) × 100] and plotted against polymer concentration to give the dose-response graphs for inhibition of biofilm formation for each antifungal agent. The SMIC 80 value is the minimum concentration of a given agent that is necessary to inhibit 80% of fungal biofilm formation. […]

C. albicans K1 strain = assay: Kill kinetics assay; type: cell-based, Candida albicans; details: 2 × MFC, C. albicans K1, RPMI 1640, 30 °C, CFU on YPD agar, duplicates
Procedure: Kill kinetics assay. A culture of C. albicans K1 strain was collected at 2.5 × 10^3 CFU/mL or 6.0 × 10^6 CFU/mL in RPMI 1640 medium to give the working suspension. […]
solution was added to 0.5 mL of the above fungal suspension in each well of a 24-well plate to achieve 2 × MFC of polymer concentration. The fungal suspensions were incubated at 30 °C. At desired time points, each suspension was homogeneously mixed and 30 µL of each

Molecule	IC50 (NIH 3T3 fibroblast cells) [mg/L]	IC50 (kidney cells (COS7)) [mg/L]	IC50 (enterocyte (NCM-460)) [mg/L]	IC50 (liver cells (LO2)) [mg/L]	IC50 (macrophage (RAW264.7)) [mg/L]	IC50 (various mammalian cells) [mg/L]	MIC against the six bacteria (summary) [1]	Concentration that eradicates mature biofilms (SMIC80) [2] [µg/mL]	Concentration that resists biofilm formation (SMIC80) [3] [µg/mL]	Time to completely kill the fungi (time‐kill kinetics) (C. albicans K1 strain)
C[C@@H]1[C@H](O)[C@@H](C)/C=C/C=C/C=C/C=C/C=C/C=C/C=C/[C@H](O[C@@H]2O[C@H](C)[C@@H](O)[C@H](N)[C@@H]2O)C[C@@H]2O[C@](O)(C[C@@H](O)C[C@@H](O)[C@H](O)CC[C@@H](O)C[C@@H](O)CC(=O)O[C@H]1C)C[C@H](O)[C@H]2C(=O)O [AmpB, amphotericin B]	1.6 (≈ 1.73 µM)	25 (≈ 27.1 µM)	40 (≈ 43.3 µM)	77 (≈ 83.3 µM)	128 (≈ 139 µM)	8.8 to 128 (≈ 9.52 to 139 µM)				
poly(DL‐diaminopropionic acid) [PDAP20]							greater than 50 µg mL^−1	50	6.3	several hours
